This note sets out measurements from ChEMBL document CHEMBL1144879, “Design, synthesis, and structure-activity relationship studies of novel 6,7-locked-[7-(2-alkoxy-3,5-dialkylbenzene)-3-methylocta]-2,4,6-trienoic acids” (J Med Chem, 2003).

Assay [1] has as its target T1, Retinoic acid receptor RXR-alpha (Rattus norvegicus, UniProt Q05343).
T1 sequence (Q05343 whole entry): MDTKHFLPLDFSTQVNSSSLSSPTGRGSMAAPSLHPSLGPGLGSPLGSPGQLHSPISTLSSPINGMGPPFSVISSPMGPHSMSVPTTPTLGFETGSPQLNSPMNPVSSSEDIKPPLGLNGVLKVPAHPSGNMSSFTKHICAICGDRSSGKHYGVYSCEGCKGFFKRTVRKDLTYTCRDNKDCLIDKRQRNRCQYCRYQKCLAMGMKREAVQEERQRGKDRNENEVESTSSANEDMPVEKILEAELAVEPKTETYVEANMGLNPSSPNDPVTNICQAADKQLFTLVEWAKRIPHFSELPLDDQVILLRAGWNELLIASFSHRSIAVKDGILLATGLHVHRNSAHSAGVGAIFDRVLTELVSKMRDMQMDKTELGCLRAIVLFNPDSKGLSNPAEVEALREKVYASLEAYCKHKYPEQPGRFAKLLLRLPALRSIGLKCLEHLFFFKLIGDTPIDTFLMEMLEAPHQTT
The assay is described as follows: In vitro transcriptional activation in CV-1 cells expressing RXR-alpha; No activity. Type of assay: cell-based.

In assay [2] the test system is Rattus norvegicus. Put plainly: T4 level in rats at 24 hr r after 30 mg/kg oral dose. Type of assay: functional.
In assay [3] the test system is Rattus norvegicus. The assay is described as follows: Triglyceride level in rats 2 hr r after 30 mg/kg oral dose.
Assay [4] is described as follows: In vitro evaluation against RXR-alpha/PPAR-gamma in CV-1 cells by cotransfection assay was determined. Type of assay: cell-based.
Another assay has as its system Mus musculus. Put plainly: Hypoglycemic activity in db/db mouse model after 7 days at 10 mg/kg/day oral dose. The assay is classed as functional.
Assay [5] concerns the target T2, Retinoic acid receptor RXR-alpha (Rattus norvegicus) (UniProt Q05343).
T2 sequence (whole entry): T1 sequence (Q05343 whole entry)
Particulars: CV-1.

Assay [6] in a line: In vitro transcriptional activation in CV-1 cells expressing RXR-alpha and PPARgamma; No activity. The assay is classed as cell-based, Rattus norvegicus.
The test system of a further assay is CV-1. Put plainly: In vitro evaluation against RXR-alpha/PPAR-gamma in CV-1 cells by cotransfection assay. Type of assay: cell-based.

Structures are written as SMILES. Active and inactive are the calls of the source. The rule behind the calls is not given here.

As for `CN(CCOc1ccc(CC2SC(=O)NC2=O)cc1)c1ccccn1` (stereo not drawn) [ROSIGLITAZONE], the Ki result in assay [1] and in assay [6] was “Not Active” throughout. For the same compound, the T4 in the assay on Rattus norvegicus [2] turned out to be 70 ng/mL. Also, the Triglycerides in the assay with Rattus norvegicus [3] came to 78 mg/dL. This compound also registered an EC50 in assay [4] of 325 nM. In the assay on Mus musculus, the Activity worked out at 412 mg/dL. Moreover, in assay [5], the Synergy entry is “inactive”. Besides, the Efficacy in the assay with CV-1 was determined as 100%.

As a reminder, the EC50 is the concentration giving half of the maximal effect. Higher therefore signals lower potency in that assay.
